Test in all cases: Epigenetic panel (BPS Bioscience)
Format in all cases: biochemical

For assay [1], the target named is T1, DNMT3A/3L (Homo sapiens, UniProt Q9Y6K1).
T1 construct: purchased BPS Bioscience (contracted assay service)
From the text: (§1) The selectivity of CM-444 and CM-1758 against other epigenetic targets, including histone demethylase (JMJD2A, JMJD2B, JMJD2C, JMJD2D, JMJD2E, JMJD3, JMJD1A, LSD1, Jarid1A, Jarid1B, Jarid1C, FBXL10, FBXL11, JHDM1D, JMJD1B, PHF8, LSD2 and UTX); histone acetyltransferases (GCN5, P300); histone methyltransferases (G9a, GLP, MLL1, SET7/9, SUV39H1, SUV39H2, PRMT1, PRMT3, PRMT4, PRMT5, PRMT6, PRMT8, PRMT9, NSD1, NSD2, EZH1, EZH2, SETDB1, SETD2, SET8, SUV4-20H1, SMYD2, SMYD3, DOT1L, EZH2 (A677G), EZH2 (A677G), EZH2 (A738T), EZH2 (Y641S), EZH2 (P132S), EZH2 (Y641C), EZH2 (Y641F), EZH2 (Y641H), EZH2 (Y641N)); bromodomains (ATAD2B, ATAD2A, BRD1, BRD9, BPTF/FALZ, CeCR2, BRPF3, BRD3 (BD1 + BD2), BAZ2B, WDR9, TAF1 (BD2), TAF1L (BD2), TAF1L (BD1 + BD2), BRD2 (BD1), BRD2 (BD2), BRD2 (BD1 + BD2), BRD3 (BD1), BRD3 (BD2), BRD4 (BD1), BRD4 (BD2), BRD4 (BD1 + BD2), BRDT (BD1), BRDT (BD1 + BD2), CREBBP, SMARCA2A, SMARCA4/BRG1); DNA methyltranferases (DNMT1, DNMT3A/3L and DNMT3B/3L), and sirtuin histone deacetylases (SIRT1, SIRT2, SIRT3, SIRT5 and SIRT6), were determined by BPS Bioscience (http://www.bpsbioscience.com/index.ph). Binding experiments were performed in duplicate at a concentration of 10 μM.

For assay [2], the target named is T2, JMJD3 (Homo sapiens, UniProt O15054).
T2 construct: purchased BPS Bioscience; Eurofins (HDAC4, 5, 7-11)
Text: as §1

In assay [3] the target is T3, PRMT9 (Homo sapiens, UniProt Q6P2P2).
T3 sequence (Q6P2P2 1-845): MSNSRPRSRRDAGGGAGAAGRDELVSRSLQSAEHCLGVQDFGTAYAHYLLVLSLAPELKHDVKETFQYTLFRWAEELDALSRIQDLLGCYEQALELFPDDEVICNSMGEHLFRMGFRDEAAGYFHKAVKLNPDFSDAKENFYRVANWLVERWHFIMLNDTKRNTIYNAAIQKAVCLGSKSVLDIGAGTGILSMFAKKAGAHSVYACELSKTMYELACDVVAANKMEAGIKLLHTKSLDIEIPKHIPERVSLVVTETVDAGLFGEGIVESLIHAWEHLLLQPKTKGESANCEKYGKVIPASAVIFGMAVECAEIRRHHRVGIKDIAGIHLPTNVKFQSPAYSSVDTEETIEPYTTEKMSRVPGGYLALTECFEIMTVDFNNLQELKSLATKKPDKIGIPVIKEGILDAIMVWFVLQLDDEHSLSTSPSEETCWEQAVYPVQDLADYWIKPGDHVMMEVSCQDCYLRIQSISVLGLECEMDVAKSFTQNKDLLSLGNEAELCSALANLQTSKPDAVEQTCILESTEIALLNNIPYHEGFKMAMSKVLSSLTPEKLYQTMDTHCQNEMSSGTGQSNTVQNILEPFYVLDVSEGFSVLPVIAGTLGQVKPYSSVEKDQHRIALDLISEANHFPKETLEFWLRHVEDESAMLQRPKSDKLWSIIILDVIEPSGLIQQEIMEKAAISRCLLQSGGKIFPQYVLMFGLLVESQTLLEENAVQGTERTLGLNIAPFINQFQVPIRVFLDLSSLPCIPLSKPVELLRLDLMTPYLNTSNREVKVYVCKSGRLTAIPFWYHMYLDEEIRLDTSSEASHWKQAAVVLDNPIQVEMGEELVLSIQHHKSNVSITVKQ
To be noted: for inhibition at 10 µM: read-out: % of inhibition.
Text: as §1

Assay [4] addresses T4, SUV39H2 (Homo sapiens, UniProt Q9H5I1).
T4 construct: purchased BPS Bioscience; Eurofins (HDAC4, 5, 7-11)
Text: as §1

In assay [5] the target is T5, EZH2 (Homo sapiens, UniProt Q15910).
T5 construct: purchased BPS Bioscience; Eurofins (HDAC4, 5, 7-11)
Text: as §1

The target of assay [6] is T6, SMYD2 (Homo sapiens, UniProt Q9NRG4).
T6 construct: purchased BPS Bioscience; Eurofins (HDAC4, 5, 7-11)
Text: as §1

The target in assay [7] is T7, SIRT5 (Homo sapiens, UniProt Q9NXA8).
T7 construct: purchased BPS Bioscience; Eurofins (HDAC4, 5, 7-11)
Text: as §1

Assay [8] addresses T8, SUV4-20H1 (Homo sapiens, UniProt Q4FZB7).
T8 construct: purchased BPS Bioscience; Eurofins (HDAC4, 5, 7-11)
Text: as §1

Assay [9] deals with T9, P300 (Homo sapiens, UniProt Q09472).
T9 construct: purchased BPS Bioscience; Eurofins (HDAC4, 5, 7-11)
Text: as §1

The target of assay [10] is T10, GCN5 (Homo sapiens, UniProt Q92830).
T10 construct: purchased BPS Bioscience; Eurofins (HDAC4, 5, 7-11)
To be noted: read-out: % of inhibition.
Text: as §1

For assay [11], the target named is T11, SET7/9 (Homo sapiens, UniProt Q8WTS6).
T11 construct: purchased BPS Bioscience; Eurofins (HDAC4, 5, 7-11)
Text: as §1

In assay [12] the target is T12, EZH2 (Y641F) (Homo sapiens, UniProt Q15910, Y641F).
T12 construct: purchased BPS Bioscience; Eurofins (HDAC4, 5, 7-11)
Text: as §1

Assay [13] deals with T13, Jarid1A (Homo sapiens, UniProt P29375).
T13 construct: purchased BPS Bioscience; Eurofins (HDAC4, 5, 7-11)
Text: as §1

The target in assay [14] is T14, SMYD3 (Homo sapiens, UniProt Q9H7B4).
T14 construct: purchased BPS Bioscience; Eurofins (HDAC4, 5, 7-11)
Text: as §1

The target of assay [15] is T15, EZH2 (A738T) (Homo sapiens, UniProt Q15910).
T15 construct: purchased BPS Bioscience; Eurofins (HDAC4, 5, 7-11)
Text: as §1

Assay [16] concerns the target T16, NSD1 (Homo sapiens, UniProt Q96L73).
T16 construct: purchased BPS Bioscience; Eurofins (HDAC4, 5, 7-11)
Text: as §1

Assay [17] addresses T17, JMJD1A (Homo sapiens, UniProt Q9Y4C1).
T17 construct: purchased BPS Bioscience; Eurofins (HDAC4, 5, 7-11)
Text: as §1

The target in assay [18] is T18, FBXL11 (Homo sapiens, UniProt Q9Y2K7).
T18 construct: purchased BPS Bioscience; Eurofins (HDAC4, 5, 7-11)
Text: as §1

Assay [19] has as its target T19, JMJD2B (Homo sapiens, UniProt O94953).
T19 construct: purchased BPS Bioscience; Eurofins (HDAC4, 5, 7-11)
Text: as §1

By inhibition is commonly meant the share of the control response that was lost under treatment. A word on the IC50: it is the midpoint of a concentration-inhibition curve.

T1 sequence (Q9Y6K1 whole entry, looked up): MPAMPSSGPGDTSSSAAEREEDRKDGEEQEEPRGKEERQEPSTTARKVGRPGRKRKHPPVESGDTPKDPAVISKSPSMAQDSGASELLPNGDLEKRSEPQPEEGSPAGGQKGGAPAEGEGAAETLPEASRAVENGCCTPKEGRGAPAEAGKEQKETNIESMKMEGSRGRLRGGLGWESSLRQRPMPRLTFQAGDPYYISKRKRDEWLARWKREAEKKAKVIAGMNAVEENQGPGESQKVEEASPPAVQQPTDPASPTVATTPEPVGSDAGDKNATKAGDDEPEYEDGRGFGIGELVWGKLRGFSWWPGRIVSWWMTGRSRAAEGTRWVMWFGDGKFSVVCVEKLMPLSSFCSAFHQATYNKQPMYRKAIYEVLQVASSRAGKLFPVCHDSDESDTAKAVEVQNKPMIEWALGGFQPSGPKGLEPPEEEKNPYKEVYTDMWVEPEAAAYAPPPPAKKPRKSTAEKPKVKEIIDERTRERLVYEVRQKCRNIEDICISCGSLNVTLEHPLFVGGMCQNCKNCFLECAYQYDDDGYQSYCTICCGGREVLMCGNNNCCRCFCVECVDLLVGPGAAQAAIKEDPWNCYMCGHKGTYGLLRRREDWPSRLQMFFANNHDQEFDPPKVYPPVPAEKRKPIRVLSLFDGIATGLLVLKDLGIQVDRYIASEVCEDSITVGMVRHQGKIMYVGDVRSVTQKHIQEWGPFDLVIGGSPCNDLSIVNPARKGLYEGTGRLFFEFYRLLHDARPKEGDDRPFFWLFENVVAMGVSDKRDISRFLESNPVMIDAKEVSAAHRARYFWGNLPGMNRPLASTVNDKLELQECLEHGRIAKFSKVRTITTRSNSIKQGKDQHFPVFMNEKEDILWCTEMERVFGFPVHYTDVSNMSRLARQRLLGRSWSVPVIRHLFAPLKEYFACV
T1 sequence (Q9UJW3 whole entry partner): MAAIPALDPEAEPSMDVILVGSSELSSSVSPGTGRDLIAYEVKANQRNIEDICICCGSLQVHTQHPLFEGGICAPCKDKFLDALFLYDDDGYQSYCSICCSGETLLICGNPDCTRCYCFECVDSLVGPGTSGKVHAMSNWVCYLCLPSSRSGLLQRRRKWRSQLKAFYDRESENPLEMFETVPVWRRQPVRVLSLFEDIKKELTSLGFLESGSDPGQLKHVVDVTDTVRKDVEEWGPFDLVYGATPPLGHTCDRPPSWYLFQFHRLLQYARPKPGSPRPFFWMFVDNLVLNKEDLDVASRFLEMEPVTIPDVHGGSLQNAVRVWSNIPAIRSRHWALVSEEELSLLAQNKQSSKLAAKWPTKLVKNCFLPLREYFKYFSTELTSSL
T9 sequence (Q09472 whole entry): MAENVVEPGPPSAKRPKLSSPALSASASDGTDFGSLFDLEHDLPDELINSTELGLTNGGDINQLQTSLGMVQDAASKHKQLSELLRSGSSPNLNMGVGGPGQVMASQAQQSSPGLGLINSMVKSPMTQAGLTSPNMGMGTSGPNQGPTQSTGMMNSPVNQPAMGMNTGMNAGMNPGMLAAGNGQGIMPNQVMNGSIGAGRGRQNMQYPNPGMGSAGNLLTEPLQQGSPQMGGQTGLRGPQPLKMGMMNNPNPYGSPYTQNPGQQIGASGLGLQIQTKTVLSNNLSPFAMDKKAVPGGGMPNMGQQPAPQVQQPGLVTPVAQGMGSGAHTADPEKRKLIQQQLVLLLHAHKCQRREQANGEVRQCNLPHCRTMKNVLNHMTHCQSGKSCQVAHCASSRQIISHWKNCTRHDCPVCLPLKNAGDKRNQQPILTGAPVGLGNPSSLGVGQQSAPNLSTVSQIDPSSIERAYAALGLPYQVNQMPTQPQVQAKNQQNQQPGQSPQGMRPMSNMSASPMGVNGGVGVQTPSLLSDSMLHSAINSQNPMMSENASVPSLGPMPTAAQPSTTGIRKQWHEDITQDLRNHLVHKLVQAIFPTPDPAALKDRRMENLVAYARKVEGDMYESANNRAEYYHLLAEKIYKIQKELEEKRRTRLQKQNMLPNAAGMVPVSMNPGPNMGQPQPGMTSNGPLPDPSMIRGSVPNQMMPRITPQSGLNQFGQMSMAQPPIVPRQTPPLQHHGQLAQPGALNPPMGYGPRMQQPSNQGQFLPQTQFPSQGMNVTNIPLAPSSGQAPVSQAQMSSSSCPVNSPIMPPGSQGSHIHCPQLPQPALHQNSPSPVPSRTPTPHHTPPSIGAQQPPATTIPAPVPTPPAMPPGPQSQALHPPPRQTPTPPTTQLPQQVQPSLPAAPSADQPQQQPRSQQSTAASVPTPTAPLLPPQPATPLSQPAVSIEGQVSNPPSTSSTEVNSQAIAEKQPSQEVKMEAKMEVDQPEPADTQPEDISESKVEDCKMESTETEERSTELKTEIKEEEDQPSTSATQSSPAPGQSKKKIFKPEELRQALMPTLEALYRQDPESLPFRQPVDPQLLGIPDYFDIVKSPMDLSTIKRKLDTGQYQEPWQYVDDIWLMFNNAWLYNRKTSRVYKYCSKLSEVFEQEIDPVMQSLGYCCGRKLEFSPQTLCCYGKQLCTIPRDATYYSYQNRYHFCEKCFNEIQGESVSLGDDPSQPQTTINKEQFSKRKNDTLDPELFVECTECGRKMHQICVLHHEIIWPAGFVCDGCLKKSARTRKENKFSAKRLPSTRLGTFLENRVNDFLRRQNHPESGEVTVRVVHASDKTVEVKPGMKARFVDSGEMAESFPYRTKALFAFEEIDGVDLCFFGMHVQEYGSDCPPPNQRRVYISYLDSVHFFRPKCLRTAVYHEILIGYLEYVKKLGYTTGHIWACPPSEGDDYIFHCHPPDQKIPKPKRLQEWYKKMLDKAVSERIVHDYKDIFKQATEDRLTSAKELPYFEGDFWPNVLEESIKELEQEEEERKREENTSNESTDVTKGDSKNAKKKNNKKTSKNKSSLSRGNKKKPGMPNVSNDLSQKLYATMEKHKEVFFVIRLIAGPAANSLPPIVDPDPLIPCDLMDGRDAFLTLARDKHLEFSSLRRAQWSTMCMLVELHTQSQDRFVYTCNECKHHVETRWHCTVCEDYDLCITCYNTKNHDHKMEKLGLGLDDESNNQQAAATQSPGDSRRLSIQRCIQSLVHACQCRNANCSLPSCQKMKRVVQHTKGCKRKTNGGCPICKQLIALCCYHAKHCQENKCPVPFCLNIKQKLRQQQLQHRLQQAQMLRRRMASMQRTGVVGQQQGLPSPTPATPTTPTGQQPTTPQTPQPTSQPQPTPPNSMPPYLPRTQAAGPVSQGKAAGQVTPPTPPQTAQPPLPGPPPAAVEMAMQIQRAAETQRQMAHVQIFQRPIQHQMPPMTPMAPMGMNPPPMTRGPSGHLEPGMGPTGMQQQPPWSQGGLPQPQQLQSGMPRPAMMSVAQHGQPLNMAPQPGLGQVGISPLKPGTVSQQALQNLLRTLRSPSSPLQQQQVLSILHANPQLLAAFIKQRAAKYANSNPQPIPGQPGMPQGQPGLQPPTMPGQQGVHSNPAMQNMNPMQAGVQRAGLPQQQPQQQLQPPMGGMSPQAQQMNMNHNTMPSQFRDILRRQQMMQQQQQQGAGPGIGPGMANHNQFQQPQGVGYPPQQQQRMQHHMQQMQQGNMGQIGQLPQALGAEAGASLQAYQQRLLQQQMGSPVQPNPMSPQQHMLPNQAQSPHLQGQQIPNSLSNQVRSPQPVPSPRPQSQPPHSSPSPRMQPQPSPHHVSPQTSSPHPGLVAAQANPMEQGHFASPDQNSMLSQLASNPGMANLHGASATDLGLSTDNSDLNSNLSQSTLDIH
T7 sequence (Q9NXA8 37-310): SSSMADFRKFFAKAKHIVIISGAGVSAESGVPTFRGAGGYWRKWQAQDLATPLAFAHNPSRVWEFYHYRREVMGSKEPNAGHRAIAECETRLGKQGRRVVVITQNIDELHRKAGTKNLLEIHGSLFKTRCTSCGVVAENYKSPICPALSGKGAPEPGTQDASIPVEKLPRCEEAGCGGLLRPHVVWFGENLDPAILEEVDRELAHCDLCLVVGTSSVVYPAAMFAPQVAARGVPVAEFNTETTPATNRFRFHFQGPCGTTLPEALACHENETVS
T19 sequence (O94953 whole entry): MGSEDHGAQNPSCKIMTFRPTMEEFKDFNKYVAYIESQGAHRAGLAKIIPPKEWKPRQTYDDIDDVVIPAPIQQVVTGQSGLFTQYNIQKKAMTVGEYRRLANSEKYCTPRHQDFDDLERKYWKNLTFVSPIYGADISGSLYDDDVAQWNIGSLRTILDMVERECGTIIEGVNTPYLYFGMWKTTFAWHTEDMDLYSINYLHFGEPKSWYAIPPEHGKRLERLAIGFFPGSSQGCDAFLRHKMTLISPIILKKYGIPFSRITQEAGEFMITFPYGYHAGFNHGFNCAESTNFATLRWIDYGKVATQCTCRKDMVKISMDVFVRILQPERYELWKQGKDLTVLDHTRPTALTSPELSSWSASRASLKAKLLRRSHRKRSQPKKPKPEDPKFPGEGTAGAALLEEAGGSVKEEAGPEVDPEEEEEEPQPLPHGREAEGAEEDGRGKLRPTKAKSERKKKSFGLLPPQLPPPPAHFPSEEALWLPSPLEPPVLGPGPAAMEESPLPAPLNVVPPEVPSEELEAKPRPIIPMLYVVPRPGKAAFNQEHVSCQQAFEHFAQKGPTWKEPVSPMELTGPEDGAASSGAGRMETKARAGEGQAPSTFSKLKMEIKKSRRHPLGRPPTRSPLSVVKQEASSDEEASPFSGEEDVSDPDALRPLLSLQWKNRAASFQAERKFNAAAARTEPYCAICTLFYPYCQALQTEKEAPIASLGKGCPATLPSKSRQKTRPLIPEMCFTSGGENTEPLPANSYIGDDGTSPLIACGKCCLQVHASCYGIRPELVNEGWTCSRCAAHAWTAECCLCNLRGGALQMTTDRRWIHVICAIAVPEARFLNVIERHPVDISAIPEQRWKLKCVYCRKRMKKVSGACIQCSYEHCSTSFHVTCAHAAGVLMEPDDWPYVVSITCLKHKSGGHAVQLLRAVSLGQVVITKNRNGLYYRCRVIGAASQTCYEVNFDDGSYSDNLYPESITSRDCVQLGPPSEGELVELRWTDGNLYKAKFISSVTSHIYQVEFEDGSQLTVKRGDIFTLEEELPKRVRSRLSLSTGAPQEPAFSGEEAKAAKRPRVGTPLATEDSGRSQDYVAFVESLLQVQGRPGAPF

On to `COc1cc2nc(-c3cc(C)oc3C)cc(NCC3CCN(c4ncc(C(=O)NO)cn4)CC3)c2cc1OC` [CM-1758, 2-[4-[[[2-(2,5-dimethyl-3-furyl)-6,7-dimethoxy-4-quinolyl]amino]methyl] -1-piperidyl]pyrimidine-5-carbohydroxamic acid], for which the inhibition at 10 µM was 44% in assay [1]; 20% in assay [2]; 52% in assay [3]; 1% in [4]; 0% in assay [5]; 16% in assay [6]. Further, the inhibition at 10 µM in [7] was 2%; in [8], 1%; in assay [9] it was 0%; in assay [10], 12%; in assay [11], 19%; in assay [12] it was 1%. Moreover, the inhibition at 10 µM in assay [13] turned out to be 47%; in assay [14] it was 21%; in assay [15], 5%; in [16] it was 10%; in assay [17] it was 12%; in [18], 2%. Further, in assay [19], at 10 µM the inhibition was 10%. The molecule also gave an IC50 in assay [3] of 22.7 µM.
Regarding `COc1cc2nc(-c3ccc(C)o3)cc(NCC3CCN(c4ncc(C(=O)NO)cn4)CC3)c2cc1OC` [CM-444, 2-[4-[[[6,7-dimethoxy-2-(5-methyl-2-furyl)-4-quinolyl]amino]methyl]-1-piperidyl]pyrimidine-5-carbohydroxamic acid], the IC50 in assay [1] was determined as 1.8 µM; in [3], 19.2 µM. Moreover, the inhibition at 10 µM was found to be 92% in assay [1]; 21% in assay [2]; 76% in [3]; 0% in assay [4]; 0% in assay [5]; 9% in assay [6]. Further, the inhibition at 10 µM was 7% in assay [7]; 2% in [8]; 10% in [9]; 31% in assay [10]; 0% in assay [11]; 0% in assay [12]. Also, the inhibition at 10 µM in assay [13] was determined as 16%; in assay [14] it was 35%; in assay [15], 5%; in assay [16], 14%; in assay [17], 3%; in assay [18] it was 33%. Testing at 10 µM in assay [19] gave an inhibition of 1%.

The values above are taken from PMC11219871, “Epigenetic-based differentiation therapy for Acute Myeloid Leukemia” (Nature Communications, 2024).
